From patent publication US12576109B2, “Allogeneic human plasma and platelet derived products and uses thereof” (Consano Bio, Inc., priority 2024, dated 2026) come the findings set out here.

For one test, the system named is THP-1 cells. In words: LPS-induced inflammation in THP-1 cells (MSD V-PLEX cytokines), Example 25. Conditions: Candesartan 1 μg/mL; 500 ng LPS; 24 hours. Type of test: cell-based, human. The procedure:
A composition comprising […] was prepared as described in Example 23 and sterile filtered, referred to as Composition […]. 300,000 THP-1 cells were plated per well. Control wells included media only. Cells were contacted with LPS and test articles as outlined in Tables 20 and 21. For a positive control, cells were administered 1.0 μg/mL Candesartan. Candesartan is a […] and known to reduce the production of cytokines. Specifically, candesartan is an angiotensin receptor subtype 1 inhibitor and was utilized as a positive control. The cells were incubated for 1 hour. The cells were incubated, and samples of the supernatant were collected at 4 hours and 24 hours. The remaining cells were collected and analyzed for total cell count and percent viability. The Meso Scale Discovery (MSD; Rockville, […]) V-PLEX kit (4-PLEX) with IL-1b, IL-6, IL-8, and TNF-α were used to analyze the cytokines in the media at 4 and 24 hours after LPS stimulation.

Test [1] relates to normal human dermal fibroblasts (NHDF) cells. Kind of test: Scratch assay (in vitro wound closure). Type of test: cell-based. Conditions: 3.7 ng/mL PDGF-BB, positive control. The procedure:
The test articles are outlined in Table 30 below. Briefly, AHPPDP was prepared based on the methods disclosed herein.
3,000 normal human dermal fibroblasts (NHDF) cells were plated per well. […] Vehicle at 9% concentration was the negative control.
The output measures of the scratch assay were, total number of nuclei per well, sum of cell area per well, and sum of empty area per well.

With `CCOc1nc2cccc(C(=O)O)c2n1Cc1ccc(-c2ccccc2-c2nnn[nH]2)cc1` [Candesartan], in the test on THP-1 cells, the IL1-beta was found to be 0 pg/mL, the IL-6 amounted to 0 pg/mL, the IL-8 is given as 1.44 pg/mL and the TNF-alpha is on record as 0 pg/mL.

B1: PDGF-BB: PDGF-BB in cell media, positive control of the scratch assay (protein, UniProt P01127 82-190, looked up)
Platelet-derived growth …: SLGSLTIAEPAMIAECKTRTEVFEISRRLIDRTNANFLVWPPCVEVQRCSGCCNNRNVQCRPTQVQLRPVQVRKIEIVRKKPIFKKATVTLEDHLACKCETVAAARPVT
As for B1, the wound healing result in test [1] is given as “Wound healing compared to vehicle condition was obtained”.
